Results published in paper PMC6753678, “Fueling Open Innovation for Malaria Transmission-Blocking Drugs: Hundreds of Molecules Targeting Early Parasite Mosquito Stages” (Frontiers in Microbiology, 2019).
Like-named read-outs stand apart in the source and are kept apart here.

Tests used:
[1] = test system: P. falciparum female gametocytes; set-up: method as in Miguel-Blanco et al 2017; conditions: ref Miguel-Blanco et al 2017, read-out: Pf FGAA IC50, cited from earlier work
HepG2 cells = conditions: ref Miguel-Blanco et al 2017, cited from earlier work; for HepG2 cytoxicity (Pf FGAA screen): HepG2 value reported with Pf FGAA screen
[2] = test system: P. falciparum female gametocytes; experiment: P. falciparum female gametogenesis assay (Pf FGAA); conditions: 1: YES, 0: NO

Structure (SMILES) | IC50 ([1]; TCAMS library screen) [µM] | HepG2 cytoxicity (Pf FGAA screen) (HepG2 cells) [µM] | Is compound selective in assay? Pf FGAA active? [2] | IC50 [1] [µM] | HepG2 cytoxicity (HepG2 cells; HepG2 value reported with the Pf FGAA screen) [µM] | Is compound selective in assay? Pf FGAA active? ([2]; >10-fold selectivity over cytotox)
O=C(c1ccc([N+](=O)[O-])o1)N1CCN(c2nc3c(Cl)cccc3s2)CC1 [TCMDC-124316] | 1.1 | 41.96 | 1 (1: YES) |  |  | 
COc1ccccc1-c1nc2c(ccc3nc(N)nc(N)c32)[nH]1 [TCMDC-137976] | 1.13 | 2.87 | 0 (0: NO) |  |  | 
CCCN(CC1CC1)c1ncc(-c2cccc(CNCCC3CCCN3C)c2)cn1 (stereo not drawn) [TCMDC-133142] | 2.18 | 3.09 | 0 (0: NO) |  |  | 
C=CCc1cccc(CN2CCC(c3cc(=O)[nH]c(-c4ccccn4)n3)CC2)c1O [TCMDC-124851] | 1.74 | 11.49 | 0 (0: NO) |  |  | 
CCc1c(CCNC/C=C/C=C/CNCCc2ccc(OC)c(OC)c2CC)ccc(OC)c1OC.Cl [TCMDC-132061] | 2.56 | 4.68 | 0 (0: NO) |  |  | 
CC(C)c1ccc(CN2CCC(CNC(=O)c3cc(-c4ccccc4F)cs3)C2)cc1.O=C(O)C(F)(F)F (stereo not drawn) [TCMDC-134436] | 1.08 | 9.14 | 0 (0: NO) |  |  | 
N#Cc1ccc(-c2ccc(C(=O)NCC3CCN(CCN4CCC(c5ccc6c(c5OCC(N)=O)CCCC6)CC4)CC3)cc2)cc1 [TCMDC-134563] | 1.26 | 6.17 | 0 (0: NO) |  |  | 
Clc1nc(Cl)c2c(ccn2Cc2ccccc2)n1 [TCMDC-137801] | 1.46 | >100 | 1 (1: YES) |  |  | 
COc1cc(OC)cc(C(=O)Nc2nc(-c3ccccn3)cs2)c1 [TCMDC-125345] | 0.36 | 39.82 | 1 (1: YES) |  |  | 
Cc1noc(C)c1-c1ccc2c(Nc3nccc4ccccc34)c(C(N)=O)cnc2c1 [TCMDC-136456] | 1.54 | 3.85 | 0 (0: NO) |  |  | 
O=C(NCC1CCN(Cc2cccc(C(F)(F)F)c2)C1)c1cc(-c2cccc(Cl)c2)cs1.O=C(O)C(F)(F)F (stereo not drawn) [TCMDC-134485] | 0.89 | 16.03 | 1 (1: YES) |  |  | 
c1ccc(CNc2cc(-c3ccccn3)nc(-c3ccccn3)n2)cc1 [TCMDC-125421] | 0.32 | 13.04 | 1 (1: YES) |  |  | 
O=c1c(NCCCN(Cc2ccc(F)cc2)c2ccccn2)c(NCc2cccnc2)c1=O [TCMDC-142311] |  |  |  | 0.36 | >100 | 1 (1: YES)
O=C(O)C(F)(F)F.c1cc(CN2CCC(CCN3CCCCC3)CC2)cc(-c2csc(-c3nc4ccccc4[nH]3)c2)c1 [TCMDC-133919] | 2.11 | 6.04 | 0 (0: NO) |  |  | 
Br.CCc1c(CCNCCCCCCNCCc2ccc(Br)cc2)ccc(O)c1O [TCMDC-132044] | 1.3 | 7.96 | 0 (0: NO) |  |  | 
CN1CCC(NCc2cccc(-c3ccc(S(=O)(=O)NCc4ccccc4)c(F)c3)c2)CC1.O=C(O)C(F)(F)F [TCMDC-132219] | 2.63 | 5.13 | 0 (0: NO) |  |  | 
FC(F)(F)c1cccc(Nc2nc3ccccc3nc2Nc2cccc(C(F)(F)F)c2)c1 [TCMDC-124162] | 2.4 | 17.68 | 0 (0: NO) |  |  | 
CN1CCCC(CN2CCN(Cc3cccc(-c4ccc(-c5nc6cc(C(F)(F)F)ccc6[nH]5)cc4)c3)CC2)C1.O=C(O)C(F)(F)F (stereo not drawn) [TCMDC-133882] | 1.3 | 4.07 | 0 (0: NO) |  |  | 

Structure (SMILES) | IC50 ([1]; TCAMS library screen) [µM] | HepG2 cytoxicity (Pf FGAA screen) (HepG2 cells) [µM] | Is compound selective in assay? Pf FGAA active? [2] | IC50 [1] [µM] | HepG2 cytoxicity (HepG2 cells; HepG2 value reported with the Pf FGAA screen) [µM] | Is compound selective in assay? Pf FGAA active? ([2]; >10-fold selectivity over cytotox)
Cl.NC1CCN(CCc2ccc(NS(=O)(=O)c3ccc(-c4ccccc4)cc3)cc2)CC1 [TCMDC-134085] | 0.75 | 7.17 | 0 (0: NO) |  |  | 
Cc1ccc(-c2nc3cc(NC(=O)c4ccc([N+](=O)[O-])o4)ccc3o2)cc1Cl [TCMDC-123657] | 1.35 | 1.72 | 0 (0: NO) |  |  | 
Cc1ccc2c(c1)c(C1CCN(C(=O)c3ccc([N+](=O)[O-])o3)CC1)cn2C [TCMDC-124787] | 2.12 | 28.85 | 1 (1: YES) |  |  | 
COc1ccccc1C1CCN(C2CCC(NC(=O)c3ccc4[nH]c(-c5ccc(C)cc5)nc4c3)CC2)CC1 (stereo not drawn) [TCMDC-133556] | 2.49 | 3.99 | 0 (0: NO) |  |  | 
c1ccc(-c2nc(NC3CCCCC3)cc(C3CC3)n2)nc1 [TCMDC-125825] | 0.16 | 48.99 | 1 (1: YES) |  |  | 
CCCCOc1c(CNCCCCCCNCc2ccc3ccccc3c2OCCCC)ccc2ccccc12.CS(=O)(=O)O [TCMDC-137975] | 1.49 | 2.21 | 0 (0: NO) |  |  | 
FC(F)(F)c1ccc2[nH]c(-c3cccc(-c4cccc(CNCCN5CCNCC5)c4)c3)nc2c1.O=C(O)C(F)(F)F [TCMDC-132871] | 1.22 | 6.61 | 0 (0: NO) |  |  | 
CCn1c(-c2nonc2N)nc2c(-c3cccc(NC(=O)Nc4ccc(C(F)(F)F)cc4)c3)ncc(OCCCN)c21.O=C(O)C(F)(F)F [TCMDC-136179] | 0.91 | 5.62 | 0 (0: NO) |  |  | 
CN(C)c1ccc(-c2csc(C(=O)NCC3CCN(Cc4cccc(C(F)(F)F)c4)C3)c2)cc1.O=C(O)C(F)(F)F (stereo not drawn) [TCMDC-134486] | 1.56 | 8.18 | 0 (0: NO) |  |  | 
CC(C)(C)Nc1cc(C2CC2)nc(-c2ccccn2)n1 [TCMDC-124453] | 0.1 | >100 | 1 (1: YES) |  |  | 
N#CC(c1ccc(Br)cc1)c1ccc2c(C(F)(F)F)cc(C(F)(F)F)nc2n1 (stereo not drawn) [TCMDC-123754] | 1.16 | 2.32 | 0 (0: NO) |  |  | 
CN1CCN(Cc2ccc(OCc3cccc(COc4ccc(CN5CCN(C)CC5)cc4I)c3)c(I)c2)CC1.Cl [TCMDC-137239] | 1.85 | 5.01 | 0 (0: NO) |  |  | 
CCn1c(-c2nonc2N)nc2c(-c3cccc(NC(=O)Nc4ccc5c(c4)CCC5)c3)ncc(OCCCN)c21.O=C(O)C(F)(F)F [TCMDC-136191] | 1.03 | 7.42 | 0 (0: NO) |  |  | 
COc1ccc(CCNCCCCNCCc2ccc(OC)c3ccccc23)c2ccccc12.CS(=O)(=O)O [TCMDC-137961] | 0.48 | 2.14 | 0 (0: NO) |  |  | 
CNCCCNCc1ccc(-c2ccc(F)c(Cl)c2)o1.Cl [TCMDC-125237] | 1.87 | 10.60 | 0 (0: NO) |  |  | 
O=C(NCC1CCN(Cc2cccc(C(F)(F)F)c2)C1)c1cc(-c2cccc(F)c2)cs1.O=C(O)C(F)(F)F (stereo not drawn) [TCMDC-134484] | 2.26 | 18.87 | 0 (0: NO) |  |  | 
O=C(Nc1ccc([N+](=O)[O-])cc1)Nc1cc(OCC(F)(F)F)cc(OCC(F)(F)F)c1 [TCMDC-124533] | 1.16 | 6.24 | 0 (0: NO) |  |  | 
Cc1ccc(C(C(=O)Nc2ccc(N3CCNCC3)c(Cl)c2)c2ccccc2)cc1 (stereo not drawn) [TCMDC-134292] | 0.66 | 11.89 | 1 (1: YES) |  |  | 
